Like-named read-outs stand apart in the source and are kept apart here.
Target: T1, human CTPS1 (Homo sapiens, UniProt P17812)
T1 construct: FLAG (with GG linker); His8 (with GG linker); purchased Proteros biostructures GmbH
T1 sequence (P17812 1-591): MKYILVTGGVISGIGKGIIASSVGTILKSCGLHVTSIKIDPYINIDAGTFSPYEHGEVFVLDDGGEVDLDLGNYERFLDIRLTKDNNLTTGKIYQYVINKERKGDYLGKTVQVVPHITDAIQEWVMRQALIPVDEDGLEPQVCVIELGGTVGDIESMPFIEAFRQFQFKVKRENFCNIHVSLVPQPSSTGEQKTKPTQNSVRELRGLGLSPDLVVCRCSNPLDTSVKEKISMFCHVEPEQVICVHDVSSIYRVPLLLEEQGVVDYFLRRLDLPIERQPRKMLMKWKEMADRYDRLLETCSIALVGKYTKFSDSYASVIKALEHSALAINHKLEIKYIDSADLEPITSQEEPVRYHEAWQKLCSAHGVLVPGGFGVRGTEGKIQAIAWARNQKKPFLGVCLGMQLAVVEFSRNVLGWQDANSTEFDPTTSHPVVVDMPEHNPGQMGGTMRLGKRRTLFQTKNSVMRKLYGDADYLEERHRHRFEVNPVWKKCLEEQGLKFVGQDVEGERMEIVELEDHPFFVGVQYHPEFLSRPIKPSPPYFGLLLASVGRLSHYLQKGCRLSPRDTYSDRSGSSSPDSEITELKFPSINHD
Assay: Human CTPS1 enzyme inhibition, ADP-Glo Max assay
Type: biochemical
Protocol: The enzyme inhibitory activities of compounds invented against the target of interest were determined using the ADP-Glo™ Max assay (Promega, UK). Assays for human CTPS1 were performed in 1× assay buffer containing 50 mM Tris, 10 mM MgCl2, 0.01% Tween-20, pH to 8.0 accordingly. Finally, immediately before use, L-cysteine was added to the 1× assay buffer to a final concentration of 2 mM. All reagents are from Sigma-Aldrich unless specified otherwise.
3× human CTPS1 protein was prepared in 1× assay buffer to the final working protein concentration required for the reaction. A 2 uL volume per well of 3× human CTPS1 protein was mixed with 2 uL per well of 3× test compound (compound prepared in 1× assay buffer to an appropriate final 3× compound concentration respective to the concentration response curve designed for the compounds under test) for 10 minutes at 25° C. […] ADP-Glo™ Max reagent was added for 60 minutes (6 μL per well) and subsequently ADP-Glo™ Max development reagent was added for 60 minutes (12 uL per well) prior to signal detection in a microplate reader (EnVision® Multilabel Reader, Perkin Elmer). Following each reagent addition over the course of the assay, assay plates were pulse centrifuged for 30 seconds at 500 rpm.
In all cases, the enzyme converts ATP to ADP and the ADP-Glo™ Max reagent subsequently depletes any remaining endogenous ATP in the reaction system. The ADP-Glo™ Max detection reagent converts the ADP that has been enzymatically produced back into ATP and using ATP as a substrate together with luciferin for the enzyme luciferase, light is generated which produces a detectable luminescence. […] The percentage inhibition produced by each concentration of compound was calculated using the equation shown below: […]

[1] = ADP-Glo Max assay, Table 10, read-out: Human CTPS1 Enzyme Inhibition, IC50 grouped by potency range (CTPS1)
[2] = Table 12, ADP-Glo Max assay, read-out: CTPS1 (Human CTPS1 Enzyme Inhibition data grouped by potency range)

Compound | IC50 [1] [nM] | further results
CCC(C(=O)Nc1ccc(-c2cncc(F)c2)cc1)c1csc(NS(=O)(=O)C2CC2)n1 (single isomer, unassigned) [T72, 2-(2-(cyclopropanesulfonamido)thiazol-4-yl)-N-(4-(5-fluoropyridin-3-yl)phenyl)butanamide] | < 100 | 
CCC(C(=O)Nc1ccc(-c2cncc(C(F)(F)F)n2)cc1)c1csc(NS(=O)(=O)C2CC2)n1 (single isomer, unassigned) [T106, 2-(2-(cyclopropanesulfonamido)thiazol-4-yl)-N-(4-(6-(trifluoromethyl)pyrazin-2-yl)phenyl)butanamide] | < 100 | 
COc1cncc(-c2ccc(NC(=O)C(OC)c3csc(NS(=O)(=O)C4CC4)n3)cc2)n1 (single isomer, unassigned) [T107, 2-(2-(cyclopropanesulfonamido)thiazol-4-yl)-2-methoxy-N-(4-(6-methoxypyrazin-2-yl)phenyl)acetamide] | < 100 | 
COC(C(=O)Nc1ccc(-c2cncc(C(F)(F)F)n2)cc1F)c1csc(NS(=O)(=O)C2CC2)n1 (single isomer, unassigned) [T458, 2-(2-(cyclopropanesulfonamido)thiazol-4-yl)-N-(2-fluoro-4-(6-(trifluoromethyl)pyrazin-2-yl)phenyl)-2-methoxyacetamide] | < 100 | 
COC(C(=O)Nc1ccc(-c2cncc(C(F)(F)F)n2)cc1F)c1csc(NS(=O)(=O)C2CC2)n1 (single isomer, unassigned) [T459, 2-(2-(cyclopropanesulfonamido)thiazol-4-yl)-N-(2-fluoro-4-(6-(trifluoromethyl)pyrazin-2-yl)phenyl)-2-methoxyacetamide] | < 100 | 
CCOc1cncc(-c2ccc(NC(=O)C3(c4ccnc(NS(=O)(=O)C5CC5)n4)CCN(C(=O)OC(C)(C)C)CC3)nc2)n1 [P139, tert-butyl 4-(2-(cyclopropanesulfonamido)pyrimidin-4-yl)-4-((5-(6-ethoxypyrazin-2-yl)pyridin-2-yl)carbamoyl)piperidine-1-carboxylate] |  | IC50 (ADP-Glo Max assay, human full length CTPS1, read-out: CTPS1 (Human CTPS1 Enzyme Inhibition data grouped by potency range, IC50)): < 100 nM
CCOc1cnc(-c2ccc(NC(CC)c3ccnc(NS(=O)(=O)C4CC4)n3)cc2)cn1 (stereo not shown) [P261] |  | IC50 [2]: 100 to 1000 nM
CCOc1cncc(-c2ccc(NC(=O)C3(c4ccnc(NS(=O)(=O)C5CC5)n4)CCN(C(=O)COC)CC3)nc2)n1 [P288] |  | IC50 [2]: < 100 nM
CCOC(=O)CN1CCC(C(=O)Nc2ccc(-c3cncc(OCC)n3)cn2)(c2nccc(NS(=O)(=O)C3CC3)n2)CC1 [P295] |  | IC50 [2]: < 100 nM
CCOc1cncc(-c2ccc(NC(=O)C3(c4ccnc(NS(=O)(=O)CC)n4)CCN(C(=O)COC)CC3)nc2)n1 [P296] |  | IC50 [2]: < 100 nM
CCOc1cncc(-c2ccc(NC(=O)C3(c4ccnc(NS(=O)(=O)C5CC5)n4)CCC(N)CC3)nc2)n1 (stereo not shown) [P304] |  | IC50 [2]: < 100 nM
CCOc1cncc(-c2ccc(NC(=O)C3(c4ccnc(NS(=O)(=O)C5CC5)n4)CCC(N(C)CC(F)F)CC3)nc2)n1 (stereo not shown) [P310] |  | IC50 [2]: < 100 nM
CCOc1cncc(-c2ccc(NC(=O)C3(c4ccnc(NS(=O)(=O)C5CC5)n4)CCC(N4CCN(C)CC4)CC3)nc2)n1 (stereo not shown) [P311] |  | IC50 [2]: 100 to 1000 nM
CCOc1cncc(-c2ccc(CNC(C)(C)c3csc(NS(=O)(=O)C4CC4)n3)c(F)c2)n1 [R94, N-(4-(2-((4-(6-Ethoxypyrazin-2-yl)-2-fluorobenzyl)amino)propan-2-yl)thiazol-2-yl)cyclopropanesulfonamide] |  | inhibition of CTPS1 enzyme (result in words) (ADP-Glo Max assay): activity is retained; IC50 (Table 14, ADP-Glo Max assay, read-out: CTPS1 (Human CTPS1 Enzyme Inhibition data grouped by potency range)): < 100 nM
O=C(Cc1csc(NS(=O)(=O)C2CC2)n1)Nc1ccc(-c2cncnc2)nc1 [T23, 2-(2-(cyclopropanesulfonamido)thiazol-4-yl)-N-(6-(pyrimidin-5-yl)pyridin-3-yl)acetamide] | 100 to 1000 | 
O=C(Cc1csc(NS(=O)(=O)C2CC2)n1)Nc1ccc(-c2ccc(F)cc2)cc1 [T25, 2-(2-(cyclopropanesulfonamido)thiazol-4-yl)-N-(4′-fluoro-[1,1′-biphenyl]-4-yl)acetamide] | 1000 to 10000 | 
CN(C(=O)Cc1csc(NS(=O)(=O)C2CC2)n1)c1ccc(-c2cccnc2)cc1 [T26, 2-(2-(cyclopropanesulfonamido)thiazol-4-yl)-N-methyl-N-(4-(pyridin-3-yl)phenyl)acetamide] | 100 to 1000 | 
COc1cccc(-c2ccc(NC(=O)C(C)(C)c3csc(NS(=O)(=O)C4CC4)n3)cc2)c1 [T28, 2-(2-(cyclopropanesulfonamido)thiazol-4-yl)-N-(3′-methoxy-[1,1′-biphenyl]-4-yl)-2-methylpropanamide] | 100 to 1000 | 
Cc1cncc(-c2ccc(NC(=O)C(C)(C)c3csc(NS(=O)(=O)C4CC4)n3)cc2)c1 [T30, 2-(2-(cyclopropanesulfonamido)thiazol-4-yl)-2-methyl-N-(4-(5-methylpyridin-3-yl)phenyl)propanamide] | < 100 | 
CC(C)(C(=O)Nc1ccc(-c2ccnnc2)cc1)c1csc(NS(=O)(=O)C2CC2)n1 [T31, 2-(2-(cyclopropanesulfonamido)thiazol-4-yl)-2-methyl-N-(4-(pyridazin-4-yl)phenyl)propanamide] | 1000 to 10000 | 
CC(C)(C(=O)Nc1ccc(-c2cnccn2)cc1)c1csc(NS(=O)(=O)C2CC2)n1 [T32, 2-(2-(cyclopropanesulfonamido)thiazol-4-yl)-2-methyl-N-(4-(pyrazin-2-yl)phenyl)propanamide] | < 100 | 
CC(C)(C(=O)Nc1ccc(-c2cnccn2)c(C#N)c1)c1csc(NS(=O)(=O)C2CC2)n1 [T34, N-(3-cyano-4-(pyrazin-2-yl)phenyl)-2-(2-(cyclopropanesulfonamido)thiazol-4-yl)-2-methylpropanamide] | 100 to 1000 | 
CC(C)(C(=O)Nc1ccc(-c2cccnc2)c(F)c1F)c1csc(NS(=O)(=O)C2CC2)n1 [T36, 2-(2-(cyclopropanesulfonamido)thiazol-4-yl)-N-(2,3-difluoro-4-(pyridin-3-yl)phenyl)-2-methylpropanamide] | 100 to 1000 | 
CC(C)(C(=O)Nc1ncc(-c2cccnc2)cn1)c1csc(NS(=O)(=O)C2CC2)n1 [T37, 2-(2-(cyclopropanesulfonamido)thiazol-4-yl)-2-methyl-N-(5-(pyridin-3-yl)pyrimidin-2-yl)propanamide] | 100 to 1000 | 
CCCOc1cncc(-c2ccc(NC(=O)C(C)(C)c3csc(NS(=O)(=O)C4CC4)n3)nc2)n1 [T38, 2-(2-(cyclopropanesulfonamido)thiazol-4-yl)-2-methyl-N-(5-(6-propoxypyrazin-2-yl)pyridin-2-yl)propanamide] | < 100 | 
CC(C)(C(=O)Nc1ccc(-c2cccnc2)cc1OC(F)(F)F)c1csc(NS(=O)(=O)C2CC2)n1 [T40, 2-(2-(cyclopropanesulfonamido)thiazol-4-yl)-2-methyl-N-(4-(pyridin-3-yl)-2-(trifluoromethoxy)phenyl)propanamide] | < 100 | 
COc1cc(NC(=O)C(C)(C)c2csc(NS(=O)(=O)C3CC3)n2)ccc1-c1cnccn1 [T43, 2-(2-(cyclopropanesulfonamido)thiazol-4-yl)-N-(3-methoxy-4-(pyrazin-2-yl)phenyl)-2-methylpropanamide] | 100 to 1000 | 
COc1ncccc1-c1ccc(NC(=O)C(C)(C)c2csc(NS(=O)(=O)C3CC3)n2)cc1 [T44, 2-(2-(cyclopropanesulfonamido)thiazol-4-yl)-N-(4-(2-methoxypyridin-3-yl)phenyl)-2-methylpropanamide] | 100 to 1000 | 
O=C(Cc1csc(NS(=O)(=O)C2CC2)n1)Nc1ccc(-c2cncc(CO)c2)cc1 [T45, 2-(2-(cyclopropanesulfonamido)thiazol-4-yl)-N-(4-(5-(hydroxymethyl)pyridin-3-yl)phenyl)acetamide] | 100 to 1000 | 
COc1ccc(-c2ccc(NC(=O)C(C)(C)c3csc(NS(=O)(=O)C4CC4)n3)cc2)cn1 [T46, 2-(2-(cyclopropanesulfonamido)thiazol-4-yl)-N-(4-(6-methoxypyridin-3-yl)phenyl)-2-methylpropanamide] | 1000 to 10000 | 

Source: patent US20230086703A1, “N-(4-(5-chloropyridin-3-yl)phenyl)-2-(2-(cyclopropanesulfonamido)pyrimidin-4-yl) butanamide derivatives and related compounds as human CTPS1 inhibitors for the treatment of proliferative diseases” (Step Pharma S.A.S., priority 2019, published 2023)
